Assay results published in patent US20160137639A1, “TRIAZOLE-ISOXAZOLE COMPOUND AND MEDICAL USE THEREOF” (JAPAN TOBACCO INC., priority 2012, published 2016).
Read-outs that look alike come from different tables or passages of the source.

Tests used:
human RORγ = molecular target: T1, human RORγ (Homo sapiens, UniProt P51449); test: Luciferase reporter gene assay of inhibitory effect against RORγ transcriptional activity (GAL4-hRORγ plasmid in CHO cells); format: cell-based
T1 construct: human, NM_005060.3 and from Ser253 to Lys518; expressed in transfected cells; host or cells: CHO cells (transient co-transfection with pG5-Luc reporter)
T1 sequence (P51449 253-518): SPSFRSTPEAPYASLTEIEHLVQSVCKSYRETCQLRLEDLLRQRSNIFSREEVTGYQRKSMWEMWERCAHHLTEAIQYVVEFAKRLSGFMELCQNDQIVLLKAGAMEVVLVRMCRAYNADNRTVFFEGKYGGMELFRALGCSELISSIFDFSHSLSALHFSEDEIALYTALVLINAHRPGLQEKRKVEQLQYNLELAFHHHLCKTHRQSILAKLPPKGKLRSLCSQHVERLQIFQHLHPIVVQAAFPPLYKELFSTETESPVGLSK
Method: (§1) In vitro assay of inhibitory effect against RORγ transcriptional activity
(§2) Inhibitory effect of test article on transcriptional activity of RORγ was measured by means of the following luciferase reporter gene assay.
(§3) A cDNA encoding human and mouse RORγ ligand binding domain (LBD) were obtained based on the reported sequences (Genebank accession number and sequence: human, NM_005060.3 and from Ser253 to Lys518; mouse, NM_011281.2 and from Ile251 to Lys516).
(§4) The cDNA of human RORγ or mouse RORγ was inserted into pFA-CMV vector (Strategene), which expresses GAL4-DNA binding domain fusion protein.
(§5) The resulting plasmids are hereinafter referred to as GAL4-hRORγ plasmid and GAL4-mRORγ plasmid, respectively.
(§6) Human or mouse GAL4-RORγ plasmid was transiently co-transfected into Chinese hamster ovary cells (CHO cells) with […] plasmid, a reporter plasmid expressing firefly luciferase depending on GAL4.
(§7) TransIT CHO transfection reagent (Mirus) was used to co-transfect human or mouse GAL4-RORγ plasmid into CHO cells with pG5-Luc plasmid.
(§8) One day before the assay, CHO cells were suspended in HAM F-12 Nutrient medium containing 10 v/v % fetal bovine serum and seeded at 6×10^6 cells per 175 cm^2 cell culture flask.
(§9) Fifty four micro litters of Transit-CHO reagent was added into a 15 ml tube containing 1.16 ml of HAM F-12 Nutrient medium without fetal bovine serum and incubated at room temperature for 10 min.
A total 36 uL plasmid solution containing the GAL4-hRORγ plasmid (400 ng), pG5-Luc plasmid (9000 ng) and pcDNA3 plasmid (8600 ng) were added into the tube and mixed gently.
(§10) The mixture was incubated at room temperature for 10 min.
(§11) Nine micro litters of CHO Mojo Reagent was then added into each tube and mixed gently. The mixture was incubated at room temperature for 10 min.
(§12) The resultant transfection reagent was applied to the cell culture.
(§13) After incubation at 37° C., 5% CO2 for 4 hr, the transfected CHO cells were harvested by a trypsin treatment.
(§14) The collected cells were resuspended in HAM F-12 Nutrient medium supplemented with 10 v/v % fetal bovine serum and plated into a 384-well-white plate at 8,000 cells/50 uL/well.
(§15) The plate was incubated at room temperature for 1 hour and then further incubated at 37° C., 5% CO2 for 3 hours.
(§16) The test articles were dissolved in dimethylsulfoxide (DMSO) to obtain a concentration of 10 mmol/L. The resulting solution was diluted with the medium just before use and added to the cells in the plate to prepare 8 different concentrations of the test article.
(§17) The final concentration of DMSO was 0.1 v/v % After the addition of the test articles, the cells were incubated at 37° C., 5% CO2 for 2 days.
(§18) RORγ transcriptional activity was detected as the intracellular luciferase activity using SteadyLite HTS Reporter Gene Assay System (Perkin Elmer).
(§19) StedyLite Reagent was diluted five-fold into a solution containing 10 mM Tricine, 0.2% w/v BSA, 0.02% v/v Tween-20 to obtain the luciferase substrate solution.
(§20) After the measurement of the cell viability using Resazurin, the culture media in the 384 well-plate were removed. Then the Luc substrate solution was added into each well.
(§21) After the incubation at room temperature for 10 minutes, luminescence of each well was measured by a microplate reader.
(§22) The luciferase activity derived from the luminescence count in the vehicle-control well treated with 0.1% DMSO alone was defined as 100%, and the luciferase activity in the test article was calculated as a percentage (%-of-control) based on the value of the vehicle-control.
(§23) EC50 value of test article was calculated by curve fitting with GraphPad Prism.
(§24) The luminescence counts at the concentration of the test article where the cytotoxicity was observed were excluded from the data analysis.

mouse RORγ = molecular target: T2, mouse RORγ (Mus musculus, UniProt P51450); test: Luciferase reporter gene assay of inhibitory effect against RORγ transcriptional activity (GAL4-mRORγ plasmid in CHO cells); format: cell-based
T2 construct: mouse, NM_011281.2 and from Ile251 to Lys516; expressed in transfected cells; host or cells: CHO cells (transient co-transfection with pG5-Luc reporter)
T2 sequence (P51450 251-516): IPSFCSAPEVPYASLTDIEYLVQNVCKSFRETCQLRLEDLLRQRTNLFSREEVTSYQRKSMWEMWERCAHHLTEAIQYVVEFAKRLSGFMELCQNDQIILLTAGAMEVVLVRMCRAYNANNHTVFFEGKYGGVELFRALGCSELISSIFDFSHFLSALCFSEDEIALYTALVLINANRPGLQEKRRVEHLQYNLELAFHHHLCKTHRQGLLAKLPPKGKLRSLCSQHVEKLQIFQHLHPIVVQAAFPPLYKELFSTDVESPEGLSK
Method: as §1, §2, §3, §4, §5, §6, §7, §8, §9, §10, §11, §12, §13, §14, §15, §16, §17, §18, §19, §20, §21, §22, §23, §24

## Cc1cc(F)ccc1NC(=O)C[C@H](CCC(=O)O)c1noc(-c2cc(CCC(C)(C)C)on2)c1C1CC1 [Example E-37]
Human RORγ; read-out: LUC EC50 (μM) hRORg
  EC50: < 3 µM
Mouse RORγ; read-out: LUC EC50 (μM) mRORg
  EC50: < 3 µM

## C=CCC(CC(=O)Nc1ccc(C)cc1C)c1nnc(CCCC(C)(C)C)n1CC(F)(F)F (racemic) [Example F-373]
Human RORγ; read-out: LUC EC50 (μM) hRORg
  EC50: < 3 µM
Mouse RORγ; read-out: LUC EC50 (μM) mRORg
  EC50: < 3 µM

## CC(=O)N1CCCC(CCc2nnc(CCC(=O)Nc3cccc(Cl)c3C)n2C2CC2)C1 (racemic) [Example F-190]
Human RORγ; read-out: LUC EC50 (μM) hRORg
  EC50: > 3 µM
Mouse RORγ; read-out: LUC EC50 (μM) mRORg
  EC50: > 3 µM

## Cc1ccc(NC(=O)C[C@H](CCC(=O)O)c2noc(-c3cnc(CC(C)C)s3)c2C2CC2)c(Cl)c1 [Example E-41, Sodium (S)-5-(2-chloro-4-methyl-phenylcarbamoyl)-4-[4-cyclopropyl-5-(2-isobutyl-thiazol-5-yl)-isoxazol-3-yl]-pentanoate]
Human RORγ; read-out: LUC EC50 (μM) hRORg
  EC50: < 3 µM
Mouse RORγ; read-out: LUC EC50 (μM) mRORg
  EC50: < 3 µM

## Cc1ccc(NCc2nnc(CCC(=O)Nc3cccc(Cl)c3C)n2C2CC2)cc1C [Example F-207]
Human RORγ; read-out: LUC EC50 (μM) hRORg
  EC50: < 3 µM
Mouse RORγ; read-out: LUC EC50 (μM) mRORg
  EC50: < 3 µM

## CCC(C)(C)C[C@H]1C[C@@H](c2onc([C@@H](CCC(=O)O)CC(=O)Nc3ccc(C)nc3C)c2C2CC2)C1 [Example F-692]
Human RORγ; read-out: LUC EC50 hRORg
  EC50: < 3 µM
Mouse RORγ; read-out: LUC EC50 mRORg
  EC50: < 3 µM

## Cc1ccc(NC(=O)CC(CCC(N)=O)c2nnc(CCCC(C)C)n2C2CC2)c(C)c1 (racemic) [Example F-284]
Human RORγ; read-out: LUC EC50 (μM) hRORg
  EC50: > 3 µM
Mouse RORγ; read-out: LUC EC50 (μM) mRORg
  EC50: > 3 µM

## Cc1ccc(NC(=O)CC(CCO)c2noc(C3CC(CC(C)C)C3)c2C2CC2)c(C)c1 (stereo not shown) [Example F-580]
Human RORγ; read-out: LUC EC50 hRORg
  EC50: < 3 µM
Mouse RORγ; read-out: LUC EC50 mRORg
  EC50: < 3 µM

## Cc1ccc(NC(=O)C[C@H](CCC(=O)O)c2noc(-c3cc(CCC(C)C)on3)c2C2CC2)c(Cl)c1 [Example E-05]
Human RORγ; read-out: LUC EC50 (μM) hRORg
  EC50: < 3 µM
Mouse RORγ; read-out: LUC EC50 (μM) mRORg
  EC50: < 3 µM

## Cc1ccc(NC(=O)C[C@H](CC(C)C)c2nnc(-c3cc(CC(C)C)no3)n2C2CC2)c(C)c1 [Example F-591]
Human RORγ; read-out: LUC EC50 hRORg
  EC50: < 3 µM
Mouse RORγ; read-out: LUC EC50 mRORg
  EC50: < 3 µM

## Cc1ccc(NC(=O)C[C@H](CCCO)c2noc(-c3cn(CCC(C)(C)C)nc3C(F)(F)F)c2C2CC2)c(F)c1 [Example F-705]
Human RORγ; read-out: LUC EC50 hRORg
  EC50: > 3 µM
Mouse RORγ; read-out: LUC EC50 mRORg
  EC50: > 3 µM

## Cc1ccc(NC(=O)[C@H]2CC(F)(F)C[C@@H]2c2nnc(-c3cc(CC(C)C)on3)n2C2CC2)c(C)c1 (racemic) [Example F-570]
Human RORγ; read-out: LUC EC50 hRORg
  EC50: < 3 µM
Mouse RORγ; read-out: LUC EC50 mRORg
  EC50: > 3 µM

## Cc1ccc(NC(=O)CC(CCN)c2nnc(CCCC(C)C)n2C2CC2)c(C)c1 (racemic) [Example F-273]
Human RORγ; read-out: LUC EC50 (μM) hRORg
  EC50: > 3 µM
Mouse RORγ; read-out: LUC EC50 (μM) mRORg
  EC50: > 3 µM

## Cc1ccc(NC(=O)C[C@H](CCC(=O)O)c2nnn([C@H]3C[C@@H](CC(C)(C)C(C)C)C3)c2C2CC2)c(F)c1 [Example F-706]
Human RORγ; read-out: LUC EC50 hRORg
  EC50: < 3 µM
Mouse RORγ; read-out: LUC EC50 mRORg
  EC50: < 3 µM

## Cc1ccc(NC(=O)CC(CCCO)c2nnc(CCCC(C)(C)C)n2CC(F)(F)F)c(C)c1 (racemic) [Example F-401]
Human RORγ; read-out: LUC EC50 (μM) hRORg
  EC50: < 3 µM
Mouse RORγ; read-out: LUC EC50 (μM) mRORg
  EC50: < 3 µM

## Cc1ccc(NC(=O)C[C@@H](c2nnc([C@H]3C[C@@H](CC(C)C)C3)n2C2CC2)[C@H]2C[C@@H](O)C2)c(C)c1 [Example F-515]
Mouse RORγ; read-out: LUC EC50 mRORg
  EC50: < 3 µM

## Cc1ccc(NC(=O)C[C@@H](c2nnc([C@H]3C[C@@H](CC(C)C)C3)n2C2CC2)[C@H]2C[C@H](O)C2)c(C)c1 [Example F-523]
Mouse RORγ; read-out: LUC EC50 mRORg
  EC50: < 3 µM

## Cc1ccc(NC(=O)C[C@H](c2nnc([C@H]3C[C@@H](CC(C)C)C3)n2C2CC2)[C@H]2C[C@H](O)C2)c(C)c1 [Example F-522]
Mouse RORγ; read-out: LUC EC50 mRORg
  EC50: > 3 µM

## Cc1ccc(NC(=O)C[C@H](c2nnc([C@H]3C[C@@H](CC(C)C)C3)n2C2CC2)[C@H]2C[C@@H](O)C2)c(C)c1 [Example F-514]
Mouse RORγ; read-out: LUC EC50 mRORg
  EC50: > 3 µM

## CCn1c(CCC2CCCCC2)nnc1[C@H]1C[C@@H]1C(=O)Nc1cccc2ccccc12 (racemic) [Example F-37]
Mouse RORγ; read-out: LUC EC50 (μM) mRORg
  EC50: < 3 µM

## CC(=O)N1C[C@H](C(=O)Nc2ccc(C)cc2C)[C@@H](c2nnc(CCCC(C)(C)C)n2C2CC2)C1 [Example F-432]
Human RORγ; read-out: LUC EC50 (μM) hRORg
  EC50: < 3 µM

## Cc1ccc(NC(=O)[C@H](CC(=O)O)Cc2noc([C@H]3C[C@@H](CC(C)(C)C)C3)c2C2CC2)c(Cl)c1 [Example F-678]
Human RORγ; read-out: LUC EC50 hRORg
  EC50: < 3 µM
